One compound from publication PMC9981671, “rRNA methylation by Spb1 regulates the GTPase activity of Nog2 during 60S ribosomal subunit assembly” (Nature Communications, 2023) can be followed below.

The test deals with Nog2 (Saccharomyces cerevisiae, UniProt P53742). Nature of the test: cryo-EM structure of native pre-60S particle, […] A. The class given is binding. As to conditions: Nog2pre from spb1 D52A strain (unmethylated G2922); GTPase site with Mg2+ and K+; pH 8.0; also Nog2post (7UUI) and Nog2pre from spb1 D52A/E769K strain (7V08).
Nog2, sequence (P53742 whole entry): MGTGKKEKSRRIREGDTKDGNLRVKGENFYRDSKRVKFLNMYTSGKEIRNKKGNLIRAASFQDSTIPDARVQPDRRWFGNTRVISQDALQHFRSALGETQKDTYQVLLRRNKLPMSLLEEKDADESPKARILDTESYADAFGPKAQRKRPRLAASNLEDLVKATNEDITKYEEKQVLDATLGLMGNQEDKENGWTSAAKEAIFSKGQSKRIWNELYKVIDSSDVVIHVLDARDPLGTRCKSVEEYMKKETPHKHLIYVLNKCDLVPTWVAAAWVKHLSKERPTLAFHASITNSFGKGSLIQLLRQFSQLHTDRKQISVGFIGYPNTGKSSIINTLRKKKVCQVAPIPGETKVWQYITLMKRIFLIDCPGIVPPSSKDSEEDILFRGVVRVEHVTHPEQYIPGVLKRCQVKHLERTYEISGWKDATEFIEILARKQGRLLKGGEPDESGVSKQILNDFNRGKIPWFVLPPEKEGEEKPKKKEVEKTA

Consider `Nc1nc2c(ncn2[C@@H]2O[C@H](COP(=O)(O)OP(=O)(O)O)[C@@H](O)[C@H]2O)c(=O)[nH]1` [GDP], for which the “cryo-EM structure of native pre-60S particle, 2.4 A” value was “GTP hydrolysis has taken place and that GDP occupies the Nog2 active site”.
